Source: patent US11529397B2, “Method of treating mucopolysaccharidosis type IVA” (Saint Louis University, priority 2018, dated 2022)

Legend:
[1] = system: splenocytes; assay: Splenocytes proliferation in Morquio A mouse models and WT mice treated by ERT (Example 9); assay type: cell-based
Experimental: (§1) Morquio A mouse models: a). […] 14(22): p. 3321-35).c). Missense mutation mice (Galnstm (C76S) SLU C2) (Tomatsu et al. (2007) Mol Genet Metab., 91(3): p. 251-8), and wild-type C57BL6 mice were treated by ERT. […] A control group received PBS.
(§2) The suspension was centrifuged at 1,000 rpm during 10 minutes.
Thymidine incorporation was measured by β-Scintillation counter (Trilux Microbeta Counter) Mirano-Bascos, et al. (2010) J Virol. 84(7): p. 3303-11).

[2] = system: splenocytes; assay: Secreted cytokine profile of splenocytes, retest in MKC mice (Example 7); assay type: cell-based, mouse; details: for IL-5 secretion, ERT treated vs PBS controls, p or significance / IL-13 secretion, ERT treated vs PBS controls, p or significance / profile of secreted cytokines, ERT treated vs PBS treated mice: MKC mice; for profile of secreted cytokines, ERT treated vs PBS treated mice: 16 i.v. infusions
Experimental: The predicted peptides from Example 1 were reevaluated in MKC mice to reaffirm the selection of peptides 4, 8, and 10. […] A control group received PBS. […] The suspension was centrifuged at 1,000 rpm during 10 minutes. […] The specificity of cellular response against the peptides or the complete enzyme in the in vitro stimulation was determined by splenocyte proliferation or cytokine secretion in ERT treated mice or PBS injected control mice.
(§3) Cytokines were determined in the cell culture supernatants. […] Cells were centrifuged at 1,000 rpm during 10 min. Secreted cytokines (IL-4, IL-5, IL-13, and IFN-γ) in the collected supernatants were detected by a bead immunoassay kit which allow the measurement of multiple proteins simultaneously (LUMINEX xMAP Technology, using a Millipore Milliplex™ kit) according to manufacturer's instructions (FIG. 5).

[3] = system: splenocytes; assay: Secreted cytokines of splenocytes in Morquio A mouse models and WT mice treated by ERT (Examples 10-13); assay type: cell-based; details: for IL-4 secretion / IL-5 secretion: MTol mice
Experimental: as §1, §2
as §3, with “1000” for “1,000”, “instructions.” for “instructions (FIG. 5).”

[4] = system: splenocytes; assay: Splenocyte proliferation after in vitro stimulation with peptides or GALNS (Examples 2, 4); assay type: cell-based, mouse; details: for proliferation of splenocytes relative to age of the animal and length of treatment: MKC mice, weeks of infusion; for splenocyte proliferation response: splenocytes of MKC mice treated by ERT with GALNS, in vitro peptide stimulation
Experimental: (§4) Mice (MKC) genetically engineered not to express GALNS were used in these examples. […] 200 μl of the emulsion were administered as a subcutaneous injection. […] Control mice (n=2) were immunized with PBS emulsified in CFA and IFA respectively (Chung et al. (2005) J. Leukoc Biol. 77(6):906-13)). […] A control group (n=5) received PBS (Tomatsu et al. (2008) Hum Mol Genet. 15; 17(6):815-24). […]
Ten days after the last immunization or the last infusion, the mice were euthanized and the spleen was aseptically removed. […] The suspension was centrifuged at 1000 rpm […]. The red blood cells were lysed using a hypotonic lysis buffer (Sigma® R7757). […] Cells were pulsed with 1 JpCi of [3H]thymidine for the last 18 h of incubation. [3H]thymidine incorporation was measured by […] (Trilux Microbeta Counter). The Stimulation Index (SI) was calculated as the mean value of the three wells for each condition divided by the mean value of the unstimulated cells (Mirano-Bascos (2010) J Virol. 84(7):3303-11).

[5] = system: splenocytes; assay: Screening of peptides by splenocytes proliferation, retest in MKC mice (Examples 5-6); assay type: cell-based, mouse; details: MKC mice, 16, 22 and 24 infusions; with higher number of infusions
Experimental: of body weight through the tail vein. A control group received PBS. […] The suspension was centrifuged at 1,000 rpm during 10 minutes. […] The specificity of cellular response against the peptides or the complete enzyme in the in vitro stimulation was determined by splenocyte proliferation or cytokine secretion in ERT treated mice or PBS injected control mice. […] 3H-Thymidine incorporation was measured by β-Scintillation counter (Trilux Microbeta Counter). Proliferation data are expressed as counts per minute (cpm) values (FIG. 5). (Mirano-Bascos et al. (2010) J Virol. 84(7): p. 3303-11).

[6] = system: splenocytes; assay: Cytokine production by splenocytes after in vitro stimulation (Example 3); assay type: cell-based, mouse; details: splenocytes of MKC mice treated by ERT with GALNS; culture supernatant
Experimental: as §4
The production of cytokines after peptide stimulation was evaluated as intracellular staining (by flow cytometry) and secreted cytokines (by LUMINEX). […] The cells were treated with 1 μl of a protein transport inhibitor BD GolgiPlug™ during 5 h at 37° C., saturated humidity and 5% CO2. The suspension of cells was centrifuged at 1000 rpm during 10 minutes. The supernatants were collected by further analysis with LUMINEX. The Fc receptors were blocked with 1 μl of α-mouse CD16/32 (e-Bioscience) during 15 min at 4° C. After washing, the cells were stained with PE-Cy7-labeled anti-mouse CD4 and Alexa700-labeled anti-mouse CD8 antibodies during 30 min at 4° C. After two washes, cells were permeabilized with a BD fixation/permeabilization solution during 20 min at 4° C. Cells were washed two times and stained with a cocktail of antibodies for intracellular staining (PE-labeled anti-mouse IL-4, APC-labeled anti-mouse IL-5 and FITC-labeled anti-mouse IFN-γ). After two washes, cells were analyzed by flow cytometry. Secreted cytokines (IL-4, IL-5, IL-13, IL-17 and IFN-γ) in the collected supernatants were detected by using a bead immunoassay kit which allows the measurement of multiple proteins simultaneously (LUMINEX technology, using a Millipore Milliplex™ kit).

Row | Sequence | splenocytes proliferation, ERT treated vs PBS controls ([1]; C2 mice) | splenocytes proliferation, ERT treated vs PBS controls ([1]; MKC mice) | splenocytes proliferation, ERT treated vs PBS controls ([1]; WT mice) | IL-5 secretion, ERT treated vs PBS controls, p or significance [2] | IL-13 secretion, ERT treated vs PBS controls, p or significance [2] | profile of secreted cytokines, ERT treated vs PBS treated mice [2] | IFN-γ secretion, MKC vs MTol mice treated by ERT, p or significance [3] | IL-4 secretion [3] | IL-5 secretion [3] | IFN-γ secretion, ERT treated vs PBS controls of the same strain ([3]; all mice (MKC, C2, WT, MTol)) | IL-5 secretion, ERT treated vs PBS controls ([3]; any of the mice models) | proliferation of splenocytes relative to age of the animal and length of treatment [4] | splenocyte proliferation response [4] | relationship between number of weekly i.v. infusions and cpm values of splenocytes proliferation [5] | secretion of cytokines IL-5 and IFN-γ [6] | levels of secreted IFN-γ among the peptides and GALNS ([2]; MKC mice treated by ERT) | IFN-γ secretion compared with the other stimuli ([3]; mice treated by ERT)
1 | FFLYWAVDATHAPVYASKPF (listed as Homo sapiens) [Peptide E8] | statistically significant difference | statistically significant | statistically significant difference | did not induce a significant IL-5 response | not statistically significant | statistically significant difference | not statistically significant | did not present secretion of IL-4 | did not present secretion of IL-5 | statistically significant levels | did not induce IL-5 secretion | highest response at 16 weeks | strong response | lower levels of proliferation | strong response | – | –
2 | PNCHFGPYDNKARPNIPVYR (listed as Homo sapiens) [Peptide C4] | statistically significant difference | statistically significant | statistically significant difference | 0.028 | not statistically significant | statistically significant difference | – | did not present secretion of IL-4 | did not present secretion of IL-5 | – | – | highest response at 16 weeks | strong response | lower levels of proliferation | strong response | highest levels | strongest response
